# In patent US4393058A, “Cephalosporin compounds” (Meiji Seika Kaisha, Ltd., priority 1979, dated 1983):
# Counter-ions that a name gives are not always drawn.
# Columns and labels:
# [1] = system: Bacillus anthracis No. 119; test: microbe, parasite or virus in culture; assay type: cell-based; conditions: NO.119, read-out: Minimum Inhibitory Concentration
# [2] = system: Pseudomonas cepacia TMS 199, KM 425; test: Minimum Inhibitory Concentration by Agar Plate Dilution Method; assay type: cell-based; conditions: Burkholderia cepacia
# [3] = system: mice; test: Acute toxicity, intraperitoneal administration to mice; assay type: in vivo; conditions: six mice, intraperitoneally 1,000 mg/kg
# Experimental: The toxicity of the compounds according to this invention is very low. None of the six mice administered intraperitoneally 1,000 mg/kg of the compound of Example 2 died. Therefore, the compounds of this invention have very low toxicity. In addition, they have a wide antibacterial spectrum and are very effective in treating infectious diseases, as compared with the conventional cephalosporin series antibiotics such as cephalotin, cefazolin, cephalexin and cephaloridine.
# [4] = system: Pseudomonas aeruginosa IAM-1007; test: Minimum Inhibitory Concentration by Agar Plate Dilution Method; assay type: cell-based; conditions: IAM1007
# [5] = system: Proteus morganii 1510 (CSase); test: as above; assay type: cell-based; conditions: Morganella morganii
# [6] = system: Pseudomonas cepacia M-0527; test: as above; assay type: cell-based; conditions: Burkholderia cepacia, M0527
# [7] = system: Escherichia coli GN 206 (CSase); test: as above; assay type: cell-based; conditions: GN206
# [8] = system: Proteus vulgaris OX 19; test: as above; assay type: cell-based; conditions: OX19
# [9] = system: Klebsiella pneumoniae GN 69 (PCase); test: as above; assay type: cell-based; conditions: GN69
# [10] = system: Citrobacter freundii GN 346 (CSase); test: as above; assay type: cell-based; conditions: GN346
# [11] = system: Serratia species GN 629 (CSase); test: as above; assay type: cell-based; conditions: GN629
# [12] = system: Pseudomonas aeruginosa M-0025; test: as above; assay type: cell-based; conditions: M0025
# [13] = system: Proteus rettgeri GN 624 (CSase); test: as above; assay type: cell-based; conditions: Providencia rettgeri, GN624
# [14] = system: Staphylococcus aereus 209PJC-1; test: as above; assay type: cell-based; conditions: 209PJC1
# [15] = system: Staphylococcus aereus Smith S-424; test: as above; assay type: cell-based; conditions: SMITHS424
# [16] = system: Serratia marcescens No. 1; test: as above; assay type: cell-based
# [17] = system: Maltophilia 604; test: as above; assay type: cell-based
# [18] = system: Gram-positive and Gram-negative bacteria, including Pseudomonas aeruginosa; conditions: conventional cephalosporin series antibiotics; cited from earlier work
Structure (SMILES),MIC [1] [µg/mL],MIC [2] [µg/mL],mice that died [3],MIC [4] [µg/mL],MIC [5] [µg/mL],MIC [6] [µg/mL],MIC [7] [µg/mL],MIC [8] [µg/mL],MIC [9] [µg/mL],MIC [10] [µg/mL],MIC [11] [µg/mL],MIC [12] [µg/mL],MIC [13] [µg/mL],MIC [14] [µg/mL],MIC [15] [µg/mL],MIC [16] [µg/mL],MIC [17] [µg/mL],control of Gram-negative bacilli typified by Pseudomonas aeruginosa [18]
"COc1ccc(-c2ccc(C(=O)N[C@@H](C(=O)NC3C(=O)N4C(C(=O)O)=C(CSc5nnnn5C)CSC34)c3ccc(O)cc3)c(=O)[nH]2)cc1OC (single isomer, unassigned) [Example 2, sodium salt of 7-{D(-)-α-[6-(3,4-dimethoxyphenyl)-1,2-dihydro-2-oxopyridine-3-carbonylamino]-p-hydroxyphenylacetamido}-3-(1-methyl-1,2,3,4-tetrazol-5-ylthiomethyl)-3-cephem-4-carboxylic acid]",1.56,6.25,None,6.25,25,6.25,3.13,0.78,12.5,3.13,12.5,3.13,12.5,0.78,0.78,3.13,6.25,–
CC1=C(C(=O)O)N2C(=O)[C@@H](NC(=O)[C@H](N)c3ccccc3)[C@H]2SC1 [cephalexin],–,–,–,–,–,–,–,–,–,–,–,–,–,–,–,–,–,cannot be controlled
"COc1ccc(COc2ccc(-c3ccc(C(=O)N[C@@H](C(=O)NC4C(=O)N5C(C(=O)O)=C(CSc6nnnn6C)CSC45)c4ccc(O)cc4)c(=O)[nH]3)cc2OC)cc1OC (single isomer, unassigned) [Example 5, sodium salt of 7-{D(-)-α-[6-[4-(3,4-dimethoxybenzyloxy)-3-methoxyphenyl]-1,2-dihydro-2-oxopyridine-3-carbonylamino]-p-hydroxyphenylacetamido}-3-(1-methyl-1,2,3,4-tetrazol-5-ylthiomethyl)-3-cephem-4-carboxylic acid]",0.2,6.25,–,12.5,12.5,6.25,0.2,0.39,6.25,0.78,12.5,3.13,3.13,0.78,0.78,3.13,12.5,–
Cc1nnc(SCC2=C(C(=O)O)N3C(=O)[C@@H](NC(=O)Cn4cnnn4)[C@H]3SC2)s1 [cefazolin],–,–,–,–,–,–,–,–,–,–,–,–,–,–,–,–,–,cannot be controlled
O=C(Cc1cccs1)N[C@@H]1C(=O)N2C(C(=O)[O-])=C(C[n+]3ccccc3)CS[C@H]12 [cephaloridine],–,–,–,–,–,–,–,–,–,–,–,–,–,–,–,–,–,cannot be controlled
CC(=O)OCC1=C(C(=O)O)N2C(=O)[C@@H](NC(=O)Cc3cccs3)[C@H]2SC1 [cephalotin],–,–,–,–,–,–,–,–,–,–,–,–,–,–,–,–,–,cannot be controlled
"CCN1CCN(C(=O)N[C@@H](C(=O)N[C@@H]2C(=O)N3[C@@H]2SC(C)(C)[C@@H]3C(=O)O)c2ccccc2)C(=O)C1=O [Example T-1220, piperacillin, reference compound]",0.78,–,–,12.5,50,1.56,25,1.56,50,100,25,6.25,0.78,0.78,1.56,1.56,200,–
